Source: ChEMBL document CHEMBL1158852, “A new sesquiterpene ester from Celastrus orbiculatus reversing multidrug resistance in cancer cells” (J Nat Prod, 1998)

Legend:
[1] = system: MCF7; test: Cytotoxicity against human MCF7 cells by SRB assay; format: functional, cell-based
[2] = Cytotoxicity against drug-resistant human MCF7/ADR cells by SRB assay; format: functional, cell-based; details: NCI/ADR-RES
[3] = Cytotoxicity against human MOLT cells by SRB assay; format: functional, cell-based
[4] = Cytotoxicity against drug-resistant human MCF7/ADR cells in presence of 10 uM Adriamycin by SRB assay; format: functional, cell-based; details: NCI/ADR-RES
[5] = system: UACC-62; test: Cytotoxicity against human UACC62 cells by SRB assay; format: functional, cell-based
[6] = system: SNB-19; test: Cytotoxicity against human SNB19 cells by SRB assay; format: functional, cell-based
[7] = system: SK-OV-3; test: Cytotoxicity against human SKOV3 cells by SRB assay; format: functional, cell-based
[8] = system: KM12; test: Cytotoxicity against human KM12 cells by SRB assay; format: functional, cell-based
[9] = system: NCI-H23; test: Cytotoxicity against human NCI-H23 cells by SRB assay; format: functional, cell-based
[10] = Cytotoxicity against human KB-3-1 cells by SRB assay; format: functional, cell-based
[11] = Cytotoxicity against drug-resistant human KBV1 cells by SRB assay; format: functional, cell-based; details: KB-V1
[12] = Cytotoxicity against drug-resistant human KBV1 cells in presence of 0.1 uM Vinblastine by SRB assay; format: functional, cell-based; details: KB-V1
[13] = system: KBV1; test: Inhibition of P-gp-mediated multidrug resistance assessed as ratio of Paclitaxel IC50 for drug-resistant human KBV1 cells to drug-sensitive human KB-3-1 cells at 3 uM; format: cell-based
[14] = system: KBV1; test: Inhibition of P-gp-mediated multidrug resistance assessed as ratio of Adriamycin IC50 for drug-resistant human KBV1 cells to drug-sensitive human KB-3-1 cells at 3 uM; format: cell-based
[15] = system: KBV1; test: Inhibition of P-gp-mediated multidrug resistance assessed as ratio of Vinblastine IC50 for drug-resistant human KBV1 cells to drug-sensitive human KB-3-1 cells at 3 uM; format: cell-based

Compound `CC(=O)O[C@H]1C[C@@H](C)[C@]23OC(C)(C)[C@H](C[C@H](OC(=O)c4ccccc4)[C@]2(C)[C@H]1OC(C)=O)[C@H]3OC(=O)c1ccccc1` [ORBICULIN A] has an IC50 [1] of 53.2 µM, an IC50 [2] of 61.9 µM and an IC50 [3] of 7.33 µM. It also gave an IC50 [4] of 1.15 µM, an IC50 [5] of 38.8 µM and an IC50 [6] of 40.8 µM. The IC50 [7] was 48.4 µM, the IC50 [8] was 38.6 µM and the IC50 [9] was 41.9 µM. For the same compound, the IC50 [10] was 49 µM, the IC50 [11] was 64.9 µM and the IC50 [12] was 0.8 µM.

`CC(=O)O[C@H]1CC[C@@H](C)[C@]23OC(C)(C)[C@H](C[C@H](OC(=O)c4ccccc4)[C@]12C)[C@H]3OC(=O)c1ccccc1` gave an IC50 [1] of 10.8 µM, a Ratio IC50 [13] of 37.1 and an IC50 [2] of 14.4 µM. The IC50 [3] was 3.05 µM, the Ratio IC50 [14] was 98.8 and the IC50 [4] was 1.39 µM. It also gave an IC50 [5] of 12.9 µM, an IC50 [6] of 18.3 µM and an IC50 [7] of 19.3 µM. The IC50 [8] was 14.9 µM, the IC50 [9] was 16.8 µM and the Ratio IC50 [15] was 63.9. The IC50 [10] was 9.26 µM, the IC50 [11] was 13 µM and the IC50 [12] was 1.36 µM.
